Data from article PMC10891803, “Seleno-Warfare against Cancer: Decoding Antitumor Activity of Novel Acylselenoureas and Se-Acylisoselenoureas” (Pharmaceutics, 2024).

Legend:
DU-145 = test: MTT cell viability assay, DU-145; assay type: cell-based, human; conditions: 48 h; for percentage of cell growth, DU-145: 10 µM, MTT screening (Figure S1); for IC50: Homo sapiens, DU-145, MTT, mean ± SD of three experiments, read-out: IC50 DU-145 (Prostate)
Protocol: (§1) The cell lines were purchased from the American Type Culture Collection (ATCC). The four tumor cell lines used were as follows: MDA-MB-231 (triple-negative breast cancer), HTB-54 (lung cancer), DU-145 (prostate cancer), and HCT-116 (colon cancer), and the non-tumoral cell line 185-B5 (mammary tissue) were grown in Roswell Park Memorial Institute (RPMI) 1640 medium culture (Thermo Scientific, USA), supplemented with 10% fetal bovine serum (FBS) (Thermo Scientific, USA) and 1% of antibiotics (10,000 units/mL penicillin and 10 mg/mL streptomycin (Thermo Scientific, USA)). Cells were preserved in tissue culture flasks at 37 °C and 5% CO2. The culture medium was replaced every two to three days.
(§2) Cell viability was determined using the MTT colorimetric assay. A total of 10,000 cells were seeded in each well in a 96-well plate for 24 h. Then, cells were incubated with the corresponding concentration of each tested compound and with DMSO (1%) as control for 48 h. Each compound was dissolved in DMSO at a stock concentration of 0.01 M. Firstly, each compound was tested at 2 concentrations (10 µM and 50 µM) in four human tumoral cell lines MDA-MB-231, HTB-54, DU-145, and HCT-116. Serial dilutions from stock concentration with culture medium were prepared. […] The cell viability was determined by the addition of 20 µL of MTT and its incubation for 2.5 h. Later, the culture medium was removed, and 50 µL of DMSO was added to dissolve formazan crystals. The absorbance was measured at 550 nm. Inhibitory concentration 50 (IC50) and selectivity index (SI) were calculated. Three different experiments were performed independently.
(§3) Cell viability results are expressed as the mean ± standard deviation (SD), and experiments were independently performed thrice in triplicates. IC50 values were determined using a non-linear curve regression analysis calculated by OriginPro 9.0 software.

HTB-54 = test: MTT cell viability assay, HTB-54; assay type: cell-based, human; conditions: 48 h; for percentage of cell growth, HTB-54: 10 µM, MTT screening (Figure S1); for IC50: Homo sapiens, HTB-54, MTT, mean ± SD of three experiments, read-out: IC50 HTB-54 (Lung)
Protocol: as §1, §2, §3

MDA-MB-231 = test: MTT cell viability assay, MDA-MB-231; assay type: cell-based, human; conditions: for percentage of cell growth, MDA-MB-231: 10 µM, MTT screening (Figure S1); for percentage of cell growth, MDA-MB-231 / IC50: 48 h; for IC50: Homo sapiens, MDA-MB-231, MTT, mean ± SD of three experiments, read-out: IC50 MDA-MB-231 (Breast); for Selectivity index (SI): IC50 184-B5/IC50 MDA-MB-231
Protocol: as §1, §2, §3

HCT-116 = test: MTT cell viability assay, HCT-116; assay type: cell-based, human; conditions: 10 µM, 48 h, MTT screening (Figure S1)
Protocol: as §1, §2, §3

[1] = system: MDA-MB-231, HTB-54, DU-145, and HCT-116; test: MTT initial screening in four tumor cell lines; assay type: cell-based; conditions: Homo sapiens, in at least three cell lines, 48 h, read-out: cell growth inhibition
Protocol: as §2

184-B5 = test: MTT cell viability assay, non-malignant 184-B5; assay type: cell-based; conditions: Homo sapiens, 48 h, mean ± SD of three experiments, read-out: IC50 184-B5 (Breast, non-tumoral)
Protocol: as §1, §2, §3

SMILES	percentage of cell growth, DU-145 (DU-145)	percentage of cell growth, HTB-54 (HTB-54)	percentage of cell growth, MDA-MB-231 (MDA-MB-231)	melting point	percentage of cell growth, HCT-116 (HCT-116)	inhibition at 10 µM [1]	IC50 (DU-145)	IC50 (HTB-54)	IC50 (MDA-MB-231)	Selectivity index (SI) (MDA-MB-231)	IC50 (184-B5)
O=C(/C=C/c1ccccc1)[Se]C(=NC1CCCCC1)NC1CCCCC1 [Compound 2]	118.17%	74.82%	-19.52%	156 to 158 °C	120.40%	–	–	–	–	–	–
CC(C)N=C(NC(C)C)[Se]C(=O)c1ccccc1 [Compound 3]	149.27%	109.68%	129.19%	163 to 165 °C	119.69%	–	–	–	–	–	–
CC(C)N=C(NC(C)C)[Se]C(=O)Cc1cccs1 [Compound 5]	143.58%	92.05%	115.35%	108 to 110 °C	139.96%	–	–	–	–	–	–
CC(C)N=C(NC(C)C)[Se]C(=O)c1cccs1 [Compound 6]	124.09%	111.26%	124.62%	120 to 122 °C	122.83%	–	–	–	–	–	–
CC(C)N=C(NC(C)C)[Se]C(=O)c1ccc2c(c1)OCO2 [Compound 7]	131.68%	108.33%	119.84%	138 to 140 °C	105.51%	–	–	–	–	–	–
O=C(NC(=[Se])NC1CCCCC1)c1ccccc1 [Compound 8]	-90.24%	-18.34%	15.90%	71 to 73 °C	104.00%	> 50%	8.83 ± 0.16 µM	14.6 ± 1.11 µM	17.4 ± 5.09 µM	1.55	27 ± 5.2 µM
CC(=O)Oc1ccccc1C(=O)NC(=[Se])NC1CCCCC1 [Compound 9]	-44.19%	-7.60%	1.88%	79 to 81 °C	117.25%	> 50%	8.76 ± 2.13 µM	29.8 ± 22.5 µM	10.2 ± 0.29 µM	1.11	11.4 ± 18 µM
O=C(NC(=[Se])NC1CCCCC1)c1cccs1 [Compound 10]	-82.64%	-25.90%	107.48%	64 to 66 °C	122.54%	> 50%	5.18 ± 0.19 µM	10.1 ± 4.88 µM	10.1 ± 0.25 µM	4.83	49 ± 39.2 µM
O=C(/C=C/c1ccccc1)NC(=[Se])NC1CCCCC1 [Compound 11]	50.53%	57.39%	71.20%	140 to 142 °C	103.12%	–	–	–	–	–	–
O=C(NC(=[Se])NC1CCCCC1)c1ccc2c(c1)OCO2 [Compound 12]	-74.14%	-34.26%	-7.07%	117 to 119 °C	76.40%	> 50%	5.22 ± 0.13 µM	10.7 ± 13.7 µM	30.7 ± 2.31 µM	1.28	39.3 ± 18.4 µM
O=C(/C=C/c1cccs1)NC(=[Se])NC1CCCCC1 [Compound 13]	52.85%	39.11%	-21.69%	–	145.89%	–	–	–	–	–	–
O=C(/C=C/c1ccc2c(c1)OCO2)NC(=[Se])NC1CCCCC1 [Compound 14]	10.32%	44.98%	83.89%	149 to 151 °C	101.60%	–	–	–	–	–	–
CC(=O)Oc1ccccc1C(=O)NC(=[Se])NC(C)C [Compound 16]	-67.79%	-0.98%	24.61%	75 to 77 °C	86.98%	> 50%	11.4 ± 3.07 µM	23 ± 23.5 µM	10.2 ± 13.6 µM	2.17	22.2 ± 3.41 µM
CC(C)NC(=[Se])NC(=O)c1cccs1 [Compound 17]	-72.56%	-22.97%	20.49%	120 to 122 °C	115.35%	> 50%	5.12 ± 0.07 µM	5.09 ± 0.34 µM	10.2 ± 0.39 µM	4.15	42.2 ± 11.4 µM
CC(C)NC(=[Se])NC(=O)/C=C/c1ccccc1 [Compound 18]	15.40%	57.40%	65.14%	–	75.78%	–	–	–	–	–	–
CC(C)NC(=[Se])NC(=O)c1ccc2c(c1)OCO2 [Compound 19]	-82.75%	-4.52%	-45.41%	–	97.76%	> 50%	5.13 ± 0.02 µM	21.9 ± 9.1 µM	12.7 ± 10.8 µM	2.89	36.8 ± 14.5 µM
CC(C)NC(=[Se])NC(=O)/C=C/c1cccs1 [Compound 20]	-13.89%	38.63%	65.39%	148 to 149 °C	109.34%	–	–	–	–	–	–
CC(C)NC(=[Se])NC(=O)/C=C/c1ccc2c(c1)OCO2 [Compound 21]	76.50%	27.21%	-6.05%	172 to 174 °C	89.57%	–	–	–	–	–	–
CC(C)NC(=[Se])NC(=O)c1ccccc1O [Compound 22]	-6.12%	3.08%	73.13%	162 to 164 °C	80.19%	–	–	–	–	–	–
